Measured values published in US9771366B2, “Substituted tetrahydropyrido[3′,2′:4,5]pyrrolo[1,2-a]pyrazine-2-carboxamides as RSK inhibitors” (Phoenix Molecular Designs, priority 2016, dated 2017).
“Also recorded” adds a separate entry of the source. Counter-ions that a name gives are not always drawn. Like-named read-outs stand apart in the source and are kept apart here. One block for each compound: values may come before it.

What was measured:
[1] = Solubility assessment at 20 mg/ml; type: physicochemical; conditions: for 20 mg/ml Solubility: dissolved in DMSO; for pH: 20 mg/ml solution
Experimental: Solubility is an important property for therapeutic drug candidates. Poor solubility can lead to low bioavailability resulting in suboptimal drug delivery. It can also prevent the evaluation of test agents in animals because the concentration(s) needed to achieve the desired effect cannot be achieved to poor solubility. For solubility assessments, small molecules targeting RSK were compared. For these assessments, 100 mM solutions of the compounds dissolved in DMSO were diluted in DMEM growth media (Life Technologies) supplemented with fetal bovine serum (FBS, Life Technologies) and 100 units/ml penicillin and 100 units/ml streptomycin (Life Technologies) to make 20 mg/ml solutions. Once diluted, the solutions were vortexed and examined for the formation of precipitates. […] For Compound 26, a 100 mM solution of the compound dissolved in DMSO was diluted in phosphate buffered saline (Life Technologies) to make a 20 mg/ml solution. The stock of […] was chosen because this is the upper end of what would be required to dose mice for a range of studies including MTD, PK, PD and efficacy. The pH of this solution was determined to be 2, as previously described. […] At high concentrations some RSK inhibitors were highly soluble while others were not. Compound 0 is (R)—N-(1-benzyl-1H-pyrazol-4-yl)-9-methyl-6-oxo-6,7,8,9-tetrahydropyrido[3′,2′:4,5]pyrrolo[1,2-a]pyrazine-2-carboxamide. Compound 0 was not soluble, whereas Compounds 18, 20, 21, 25 and 26 were soluble under the same conditions (Table 5).

CD34+ cells = assay: Colony forming unit hematopoietic stem cell assay; type: cell-based, human; conditions: ratio of IC50 values against CD34+ cells and MDA-MB-231 cells
Experimental: The hematopoietic colony forming cell assay was conducted based on a protocol outlined by StemCell Technologies. […] Following the addition of CD34^+ cells isolated from human cord blood or peripheral blood (StemCell Technologies) at a final concentration of 5×10^2 cells per dish, the tubes were vortexed and allowed to stand for 5 minutes at room temperature. Next, the MethoCult mixtures were dispensed into 35 mm dishes (Corning Incorporated) through blunt end needles (StemCell Technologies) and 5 ml syringes (BD Biosciences) at a volume of 1.1 ml per dish. The medium was evenly distributed across the surface of each dish by gentle tilting and rotation. The dishes were then placed in a 100 mm culture dish (Grenier Bio-One) containing additional 35 mm dishes with sterile water to maintain humidity. The culture dish was then placed at 37° C. in a humidified incubator containing 5% CO2 for 13 days. The number of myeloid and erythroid derived colonies in both the treated and control dishes were counted and compared.

RSK2 = RSK2 (Homo sapiens (Human), UniProt P51812); assay: Radioisotope kinase assay (SignalChem), RSK2; type: biochemical
Experimental: The assay conditions for the RSK2 kinase target were optimized to yield acceptable enzymatic activity. In addition, the assays were optimized to give high signal-to-noise ratio.
Radioisotope assays (SignalChem) were performed for the evaluation of the kinase target profiling and all assays were performed in a designated radioactive working area. The kinase targets were RSK1, RSK2, RSK3, RSK4 and MK2.
The assay was initiated by the addition of ^33P-ATP and the reaction mixture incubated at 30° C. for 15 minutes. After the incubation period, the assay was terminated by spotting 10 μL of the reaction mixture onto Multiscreen phosphocellulose P81 plate. The Multiscreen phosphocellulose P81 plate was washed 3 times for approximately 15 minutes each in a 1% phosphoric acid solution. The radioactivity on the P81 plate was counted in the presence of scintillation fluid in a Trilux scintillation counter.
Blank controls were set up for each target kinase which included all the assay components except the addition of the appropriate substrate (which was replaced with equal volume of assay dilution buffer). The corrected activity for each target kinase was determined by removing the blank control value.

HLA-DRA mRNA = assay: Immuno-oncology: HLA-DRA mRNA expression; type: cell-based, Human; conditions: MDA-MB-231 and JIMT-1 cells; Compound 16 2 or 4 uM, Compound 18 1, 2, or 4 uM
Text: (§1) A key feature of cancer is low immunogenicity. This can occur by several mechanisms that allow the cells to escape immune recognition. […] HLA-DRA is a member of MHC-II genes and CIITA is the master regulator of MHC II transcription. Thus it was surprising that CIITA, which would be expected to regulate MHC II gene expression, was not altered by RSK inhibition. […] HLA-DRA is important for immune recognition while PD-L1 is involved in immune checkpoints.

CIITA mRNA = assay: Immuno-oncology: CIITA mRNA expression; type: cell-based, Human; conditions: MDA-MB-231 and JIMT-1 cells; Compound 16 2 or 4 uM, Compound 18 1, 2, or 4 uM
Text: as §1

[2] = system: CD274, the gene that encodes PD-L1; assay: Immuno-oncology: CD274 expression in MDA-MB-231 cells; type: cell-based, Human; conditions: Compound 16 2 or 4 uM, Compound 18 1, 2 or 4 uM
Text: as §1

[3] = system: phosphorylated Y-box binding protein-1 (YB-1) at serine 102 (P—YB-1S102); assay: Immunoblotting of phosphorylated YB-1 in MDA-MB-231 cells; conditions: MDA-MB-231, 0.01-1 uM, 96 hrs
Experimental: Following desired experimental conditions, breast cancer cell lines grown and treated in 6 well plates or 100 mm culture dishes (Grenier Bio-One) were placed on ice and the supernatant from each well was removed and the cells were washed in cold PBS. Following removal of PBS, cells were exposed to radioimmunoprecipitation assay (RIPA) buffer (50 mM Tris-HCl (pH 8), 150 mM NaCl, 1% NP-40, 0.5% sodium deoxycholate, 0.1% SDS; Fisher Scientific) supplemented with 1% phosphatase inhibitor (Fisher Scientific) and 1% protease inhibitor (Fisher Scientific) for 10 minutes. Samples were transferred to eppendorf tubes, vortexed and then centrifuged at 14 000 rpm for 10 minutes. Supernatants were collected as whole cell lysates. For mouse tumour tissues, each sample was place in a 35 mm culture dish with complete RIPA lysis buffer. The samples were diced in the buffer on ice with a sterile scalpel (VWR) and the buffer and tissue were transferred to an eppendorf tube. The samples were left on ice for 10 minutes with periodic vortexing every 2 to 3 minutes. The samples were then transferred to a Qiashredder (Qiagen) and centrifuged at 14 000 rpm for 2 minutes. The flow through was transferred to a new eppendorf tube and the samples were centrifuged again at 14 000 rpm for 5 minutes. Supernatants were collected as whole cell lysates.
For the majority of experiments in this study, 30 μg of protein per well was loaded. Samples were then resolved on SDS-PAGE (polyacrylamide gel electrophoresis) using various percentages of acrylamide gels (8%-12%), depending on the proteins of interest. […] For certain immunoblots, bands of proteins of interest were scanned and band intensity ratios were determined by densitometric analysis (ImageJ). […] To assess whether cells are actively undergoing cell death, the activity of poly ADP ribose polymerase (PARP) (1:1000 CST) was also measured using the immunoblotting method.

[4] = Plasma and tumor levels by LC/MS in MDA-MB-231 xenograft mice; type: in vivo; conditions: nu/nu, mouse, oral, 100 mg/kg; for concentration at 30 min: 30 minutes after last dose

RSK2, sequence (P51812 whole entry): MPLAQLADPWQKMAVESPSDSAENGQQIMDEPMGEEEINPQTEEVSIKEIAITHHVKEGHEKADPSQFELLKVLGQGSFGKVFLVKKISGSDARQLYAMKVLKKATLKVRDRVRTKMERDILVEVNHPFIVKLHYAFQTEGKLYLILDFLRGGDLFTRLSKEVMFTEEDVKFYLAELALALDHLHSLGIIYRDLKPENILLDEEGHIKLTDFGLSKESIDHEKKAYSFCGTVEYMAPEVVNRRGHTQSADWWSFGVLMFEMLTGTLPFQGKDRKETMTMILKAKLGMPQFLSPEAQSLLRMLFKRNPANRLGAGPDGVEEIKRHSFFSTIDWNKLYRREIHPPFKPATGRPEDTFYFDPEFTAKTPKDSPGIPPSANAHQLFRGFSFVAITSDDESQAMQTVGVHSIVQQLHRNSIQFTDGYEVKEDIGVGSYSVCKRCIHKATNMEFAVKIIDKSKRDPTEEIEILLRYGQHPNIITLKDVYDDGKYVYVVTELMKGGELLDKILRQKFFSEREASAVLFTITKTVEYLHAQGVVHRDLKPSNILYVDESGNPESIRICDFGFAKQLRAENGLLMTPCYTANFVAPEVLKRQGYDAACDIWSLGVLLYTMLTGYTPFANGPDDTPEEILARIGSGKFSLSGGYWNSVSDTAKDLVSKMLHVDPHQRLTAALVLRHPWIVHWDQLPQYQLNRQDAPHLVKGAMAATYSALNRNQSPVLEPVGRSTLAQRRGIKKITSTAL

20 mg/ml Solubility ([1]; diluted in DMEM): not soluble; also recorded: Precipitate
solubility for systemic delivery / pharmacodynamics evaluation ([1]; mice): poor or nonexistent solubility
SMILES: C[C@@H]1CNC(=O)c2cc3ccc(C(=O)Nc4cnn(Cc5ccccc5)c4)nc3n21 [Compound 0, (R)—N-(1-benzyl-1H-pyrazol-4-yl)-9-methyl-6-oxo-6,7,8,9-tetrahydropyrido[3′,2′:4,5]pyrrolo[1,2-a]pyrazine-2-carboxamide, reference compound]
Therapeutic Window (CD34+ cells): 50X

IC50 (RSK2): 1380 nM
SMILES: C[C@@H]1CNC(=O)c2cc3ccc(NC(=O)c4cnn(Cc5ccccc5)c4)cc3n21 [Compound 11, (R)-1-benzyl-N-(4-methyl-1-oxo-1,2,3,4-tetrahydropyrazino[1,2-a]indol-7-yl)-1H-pyrazole-4-carboxamide]

IC50 (RSK2): 23 nM
SMILES: C[C@@H]1CNC(=O)c2cc3ccc(C(=O)Nc4cnn(Cc5cccc(N)c5)c4)nc3n21 [Compound 16, (R)—N-(1-(3-aminobenzyl)-1H-pyrazol-4-yl)-9-methyl-6-oxo-6,7,8,9-tetrahydropyrido[3′,2′:4,5]pyrrolo[1,2-a]pyrazine-2-carboxamide]
levels of HLA-DRA mRNA (HLA-DRA mRNA): elevated
mRNA expression of CIITA (CIITA mRNA): little effect
levels of CD274 [2]: reduced
Therapeutic Window (CD34+ cells): >100X
loss of P—YB-1 [3]: dose dependent loss

IC50 (RSK2): 14 nM
SMILES: C[C@@H]1CNC(=O)c2cc3ccc(C(=O)Nc4cnn(Cc5ccccc5N)c4)nc3n21 [Compound 17, (R)—N-(1-(2-aminobenzyl)-1H-pyrazol-4-yl)-9-methyl-6-oxo-6,7,8,9-tetrahydropyrido[3′,2′:4,5]pyrrolo[1,2-a]pyrazine-2-carboxamide]

IC50 (RSK2): 124 nM
pH ([1]; DMSO diluted in DMEM): 8
20 mg/ml Solubility ([1]; diluted in DMEM): Soluble
SMILES: C[C@@H]1CNC(=O)c2cc3ccc(C(=O)Nc4cnn(CC5CCN(C)CC5)c4)nc3n21 [Compound 20, (R)-9-methyl-N-(1-((1-methylpiperidin-4-yl)methyl)-1H-pyrazol-4-yl)-6-oxo-6,7,8,9-tetrahydropyrido[3′,2′:4,5]pyrrolo[1,2-a]pyrazine-2-carboxamide]

pH ([1]; DMSO diluted in DMEM): 9
20 mg/ml Solubility ([1]; diluted in DMEM): Soluble
SMILES: C[C@@H]1CNC(=O)c2cc3ccc(C(=O)Nc4ccccc4C(N)=O)nc3n21 [Compound 21, (R)—N-(2-carbamoylphenyl)-9-methyl-6-oxo-6,7,8,9-tetrahydropyrido[3′,2′:4,5]pyrrolo[1,2-a]pyrazine-2-carboxamide]

20 mg/ml Solubility ([1]; diluted in DMEM): Precipitate
SMILES: C[C@@H]1CNC(=O)c2cc3ccc(C(=O)Nc4cnn(Cc5ccc(C(F)(F)F)cc5)c4)nc3n21 [Compound 22, (R)-9-methyl-6-oxo-N-(1-(4-(trifluoromethyl)benzyl)-1H-pyrazol-4-yl)-6,7,8,9-tetrahydropyrido[3′,2′:4,5]pyrrolo[1,2-a]pyrazine-2-carboxamide]

20 mg/ml Solubility ([1]; diluted in DMEM): Precipitate
SMILES: C[C@@H]1CNC(=O)c2c(Cl)c3ccc(C(=O)Nc4cnn(Cc5ccccc5)c4)nc3n21 [Compound 24, (R)—N-(1-benzyl-1H-pyrazol-4-yl)-5-chloro-9-methyl-6-oxo-6,7,8,9-tetrahydropyrido[3′,2′:4,5]pyrrolo[1,2-a]pyrazine-2-carboxamide]

SMILES: C[C@@H]1CNC(=O)c2cc3ccc(C(=O)Nc4cnn(Cc5ccc(N)cc5)c4)nc3n21 [Compound 25, (R)—N-(1-(4-aminobenzyl)-1H-pyrazol-4-yl)-9-methyl-6-oxo-6,7,8,9-tetrahydropyrido[3′,2′:4,5]pyrrolo[1,2-a]pyrazine-2-carboxamide hydrochloride salt]
IC50 (RSK2): 18 nM
pH ([1]; DMSO diluted in DMEM, hydrochloride salt): 2
20 mg/ml Solubility ([1]; diluted in DMEM, hydrochloride salt): Soluble
concentration at 30 min ([4]; plasma, 100 mg/kg BID PO three days, read-out: plasma level, average): 35.1 µM
concentration at 30 min ([4]; tumor, 100 mg/kg BID PO 21 days, read-out: average concentration in the tumors): 7.7 µM
concentration at 30 min ([4]; tumor, 100 mg/kg BID PO three days, read-out: Tumor level, average): 7.1 µM
Kp at 30 min ([4]; tumor/plasma, three days of treatment, read-out: tumor uptake (ratio between tumor and plasma)): 0.2
Therapeutic Window (CD34+ cells; hydrochloride salt): >100X

pH at which the compound remained in solution ([1]; 20 mg/ml in PBS after 4M NaOH was added): 9
pH ([1]; DMSO diluted in PBS, hydrochloride salt): 2-9
20 mg/ml Solubility ([1]; diluted in PBS, hydrochloride salt): Soluble
SMILES: C[C@@H]1CNC(=O)c2cc3ccc(C(=O)Nc4cnn(Cc5ccc(CN)cc5)c4)nc3n21 [Compound 26, (R)—N-(1-(4-(aminomethyl)benzyl)-1H-pyrazol-4-yl)-9-methyl-6-oxo-6,7,8,9-tetrahydropyrido[3′,2′:4,5]pyrrolo[1,2-a]pyrazine-2-carboxamide hydrochloride salt]

SMILES: CC(=O)O[C@H]1C(=O)[C@@]2(C)[C@H]([C@H](OC(=O)c3ccccc3)[C@]3(O)C[C@H](OC(=O)[C@H](O)[C@@H](NC(=O)c4ccccc4)c4ccccc4)C(C)=C1C3(C)C)[C@]1(OC(C)=O)CO[C@@H]1C[C@@H]2O [Taxol, paclitaxel, reference compound]
Therapeutic Window (CD34+ cells): 6.9X
